Test results taken from ChEMBL document CHEMBL1144962, “A new sterol sulfate, Sch 572423, from a marine sponge, Topsentia sp” (Bioorg Med Chem Lett, 2003).

Molecular target: P2Y purinoceptor 12 (Homo sapiens, UniProt Q9H244)
Experiment: Binding affinity against Purinergic receptor P2Y12 using [3H]2-methylthio-ADP as radioligand
Type: tissue-based

Chain of P2Y purinoceptor 12 (Q9H244 whole entry): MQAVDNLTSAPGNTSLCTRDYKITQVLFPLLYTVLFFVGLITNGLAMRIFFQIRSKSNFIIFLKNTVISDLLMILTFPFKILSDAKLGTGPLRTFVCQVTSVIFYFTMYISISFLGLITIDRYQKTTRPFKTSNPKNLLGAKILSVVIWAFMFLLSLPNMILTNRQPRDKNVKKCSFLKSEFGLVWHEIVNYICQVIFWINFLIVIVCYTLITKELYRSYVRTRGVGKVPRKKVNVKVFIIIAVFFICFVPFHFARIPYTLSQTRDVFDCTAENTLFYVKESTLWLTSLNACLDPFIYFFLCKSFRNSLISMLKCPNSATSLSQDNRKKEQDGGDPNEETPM

| Structure (SMILES) | IC50 |
| --- | --- |
| CC(C(O)C(O)[C@@H](C)C1CC[C@H]2[C@@H]3CC[C@H]4C[C@H](OS(=O)(=O)O)[C@H](OS(=O)(=O)O)C[C@]4(C)[C@@]3(C)CC[C@]12C)C(C)(C)C (some centres not stated) | 2200 nM |
| CC(CC[C@@H](C)C1CC[C@H]2[C@@H]3C[C@H](OS(=O)(=O)O)[C@H]4C[C@H](OS(=O)(=O)O)[C@H](OS(=O)(=O)O)C[C@]4(C)[C@@]3(C)CC[C@]12C)C(C)(C)C (some centres not stated) | 480 nM |
